Test results reported in PubChem BioAssay AID330 (DTP/NCI, 2004).
Several values for one entry are separate records, joined by “and”; a condition that tells them apart may be missing. Equal values may be shown once. Toxic doses and inconclusive results are not listed.

System: P388 leukemia ip, CD2F1 mice, survival T/C
Experiment: NCI In Vivo Anticancer Drug Screen. Data for tumor model P388 Leukemia (intraperitoneal) in CD2F1 (CDF1) mice
Conditions: endpoint: median survival time, higher = longer survival
Method in brief: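 Mice carrying the transplanted tumor received test compound or vehicle. Survival was recorded in each group, and the value is the treated-group measurement divided by that of the vehicle-treated control group.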

[1] = dose: 50.0 mg/kg/injection, schedule: Q01DX005 (ip), vehicle: Klucel (hydroxypropylcellulose) (HPC)
[2] = dose: 100.0 mg/kg/injection, schedule: Q01DX005 (ip), vehicle: Klucel (hydroxypropylcellulose) (HPC)
[3] = dose: 200.0 mg/kg/injection, schedule: Q01DX005 (ip), vehicle: Klucel (hydroxypropylcellulose) (HPC)
[4] = dose: 60.0 mg/kg/injection, schedule: Q01DX005 (ip), vehicle: saline with Tween-80
[5] = dose: 120.0 mg/kg/injection, schedule: Q01DX005 (ip), vehicle: saline with Tween-80
[6] = dose: 240.0 mg/kg/injection, schedule: Q01DX005 (ip), vehicle: saline with Tween-80
[7] = dose: 50.0 mg/kg/injection, schedule: Q01DX009 (ip), vehicle: Klucel (hydroxypropylcellulose) (HPC)
[8] = dose: 100.0 mg/kg/injection, schedule: Q01DX009 (ip), vehicle: Klucel (hydroxypropylcellulose) (HPC)
[9] = dose: 200.0 mg/kg/injection, schedule: Q01DX009 (ip), vehicle: Klucel (hydroxypropylcellulose) (HPC)
[10] = dose: 50.0 mg/kg/injection, schedule: Q01DX009 (ip), vehicle: saline
[11] = dose: 100.0 mg/kg/injection, schedule: Q01DX009 (ip), vehicle: saline
[12] = dose: 200.0 mg/kg/injection, schedule: Q01DX009 (ip), vehicle: saline
[13] = dose: 100.0 mg/kg/injection, schedule: Q04DX002 (ip), vehicle: saline with Tween-80
[14] = dose: 25.0 mg/kg/injection, schedule: Q01DX009 (ip), vehicle: Klucel (hydroxypropylcellulose) (HPC)
[15] = dose: 12.5 mg/kg/injection, schedule: Q01DX009 (ip), vehicle: Klucel (hydroxypropylcellulose) (HPC)

In the case of `C=C(C)[C@@H]1CCc2c(O)c(O)c(=O)cc(C)c2C1`, the T/C (dose: 1.75 mg/kg/injection, schedule: Q01DX009 (ip), vehicle: saline) is reported as 108 % of control, the T/C (dose: 3.5 mg/kg/injection, schedule: Q01DX009 (ip), vehicle: saline) is reported as 112 % of control and 113 % of control and the T/C (dose: 7.0 mg/kg/injection, schedule: Q01DX009 (ip), vehicle: saline) is reported as 101 % of control and 121 % of control. For the same compound, the T/C (dose: 14.0 mg/kg/injection, schedule: Q01DX009 (ip), vehicle: saline) was 110 % of control, the T/C (dose: 28.0 mg/kg/injection, schedule: Q01DX009 (ip), vehicle: saline) was 121 % of control and the T/C (dose: 56.0 mg/kg/injection, schedule: Q01DX009 (ip), vehicle: saline) was 119 % of control.

For `CC1CN2CC(C)O[Si](CC[Si]34OC(C)CN(CC(C)O3)CC(C)O4)(O1)OC(C)C2` (centres undefined), the T/C [1] was 108 % of control, the T/C [2] was 106 % of control and the T/C [3] was 105 % of control.

For `COC(=O)CCn1nc(-c2ccccc2)c(-c2ccccc2)c(S(C)(=O)=O)c1=O`, the T/C (dose: 25.0 mg/kg/injection, schedule: Q04DX002 (ip), vehicle: distilled water + Tween-80) was 95 % of control, the T/C (dose: 50.0 mg/kg/injection, schedule: Q04DX002 (ip), vehicle: distilled water + Tween-80) was 92 % of control and the T/C (dose: 200.0 mg/kg/injection, schedule: Q04DX002 (ip), vehicle: distilled water + Tween-80) was 90 % of control.

`Cc1nc2[nH]ncc2c(=O)n1-c1ccccc1Cl` was tested, and the T/C [1] was 101 % of control, the T/C [2] was 101 % of control and the T/C [3] was 99 % of control.

`O=C(Nc1ccc(Br)c2c(NC(=O)c3ccccc3)ccc(Br)c12)c1ccccc1` was tested, and the T/C (dose: 1.5 mg/kg/injection, schedule: Q01DX009 (ip), vehicle: saline with Tween-80) was 100 % of control, the T/C (dose: 3.0 mg/kg/injection, schedule: Q01DX009 (ip), vehicle: saline with Tween-80) was 90 % of control and the T/C (dose: 6.0 mg/kg/injection, schedule: Q01DX009 (ip), vehicle: saline with Tween-80) was 90 % of control.

For `COc1cc2c(c(OC)c1OC)-c1cc3c(cc1C(OC1c4cc5c(cc4-c4c(cc(OC)c(OC)c4OC)CC4C(=O)OCC41)OCO5)C1COC(=O)C1C2)OCO3` (centres undefined), the T/C (dose: 2.5 mg/kg/injection, schedule: Q01DX005 (ip), vehicle: Klucel (hydroxypropylcellulose) (HPC)) was 109 % of control, the T/C (dose: 5.0 mg/kg/injection, schedule: Q01DX005 (ip), vehicle: Klucel (hydroxypropylcellulose) (HPC)) was 98 % of control and the T/C (dose: 10.0 mg/kg/injection, schedule: Q01DX005 (ip), vehicle: Klucel (hydroxypropylcellulose) (HPC)) was 92 % of control. For the same compound, the T/C (dose: 20.0 mg/kg/injection, schedule: Q01DX005 (ip), vehicle: Klucel (hydroxypropylcellulose) (HPC)) was 109 % of control.

`CC[Si](C#CCOc1ccccc1C1OCCO1)(CC)CC` was tested, and the T/C [4] was 105 % of control, the T/C [5] was 101 % of control and the T/C [6] was 99 % of control.

For `O=C1c2ccccc2CCCC12OC2c1ccncc1` (centres undefined), the T/C [7] was 90 % of control, the T/C [8] was 96 % of control and the T/C [9] was 90 % of control.

For `O=C(Nc1cc(Cl)ccc1Cl)Oc1ccc(Cl)cc1C(=O)c1ccccc1`, the T/C [10] was 102 % of control, the T/C [11] was 97 % of control and the T/C [12] was 89 % of control.

In the case of `CCC1=CC(C(O)CC(C)C)C(C)(Cc2ccc(CC)cn2)NC1c1ccccc1` (centres undefined), the T/C [13] is reported as 96 % of control.

For `COC(=O)COc1cc2c(cc1C(C)c1ccc(O)cc1)OCO2` (centres undefined), the T/C (dose: 50.0 mg/kg/injection, schedule: Q01DX005 (ip), vehicle: saline with Tween-80) was 100 % of control, the T/C (dose: 100.0 mg/kg/injection, schedule: Q01DX005 (ip), vehicle: saline with Tween-80) was 102 % of control and the T/C (dose: 200.0 mg/kg/injection, schedule: Q01DX005 (ip), vehicle: saline with Tween-80) was 90 % of control.

`CSC(SC)(C(=O)O)c1cc(C)no1` was tested, and the T/C [4] was 107 % of control, the T/C [5] was 102 % of control and the T/C [6] was 102 % of control.

In the case of `CNC(=S)N/N=C(\C)c1ccco1`, the T/C (dose: 100.0 mg/kg/injection, schedule: Q01DX001 (ip), vehicle: saline) is reported as 104 % of control, the T/C (dose: 200.0 mg/kg/injection, schedule: Q01DX001 (ip), vehicle: saline) is reported as 97 % of control and the T/C (dose: 400.0 mg/kg/injection, schedule: Q01DX001 (ip), vehicle: saline) is reported as 97 % of control.

For `CCC1C(C#N)C(=O)NC(=O)C1C#N` (centres undefined), the T/C [7] was 100 % of control, the T/C [8] was 95 % of control and the T/C [9] was 95 % of control.

In the case of `CSc1nc(-c2ccccc2)cc(=O)[nH]1`, the T/C [14] is reported as 106 % of control, the T/C [7] is reported as 118 % of control and the T/C [10] is reported as 102 % of control. The T/C [8] was 112 % of control, the T/C [11] was 108 % of control and the T/C [9] was 94 % of control. For the same compound, the T/C [12] was 102 % of control.

`C[CH2][Ge]([CH2]C)[CH2]C.C[CH2][Ge]([CH2]C)[CH2]C.C[CH2][Ge]([CH2]C)[S][Ge]([CH2]C)[CH2]C` was tested, and the T/C [4] was 96 % of control, the T/C [5] was 100 % of control and the T/C [6] was 99 % of control.

`C/C=C/C=C/C(O)CC(=O)N1OC2(C)c3ccccc3C1(C)c1ccccc12` (centres undefined) was tested, and the T/C (dose: 100.0 mg/kg/injection, schedule: Q04DX003 (ip), vehicle: saline + alcohol) was 92 % of control, the T/C (dose: 200.0 mg/kg/injection, schedule: Q04DX003 (ip), vehicle: saline + alcohol) was 92 % of control and the T/C (dose: 400.0 mg/kg/injection, schedule: Q04DX003 (ip), vehicle: saline + alcohol) was 98 % of control.

`COc1ccc(CSC(=S)Nc2ccc(Cl)c(C(F)(F)F)c2)cc1` was tested, and the T/C (dose: 25.0 mg/kg/injection, schedule: Q01DX009 (ip), vehicle: saline with Tween-80) was 95 % of control, the T/C (dose: 25.0 mg/kg/injection, schedule: Q01DX009 (ip), vehicle: saline) was 104 % of control and the T/C (dose: 50.0 mg/kg/injection, schedule: Q01DX009 (ip), vehicle: saline with Tween-80) was 98 % of control. For the same compound, the T/C [10] was 109 % of control, the T/C (dose: 50.0 mg/kg/injection, schedule: Q01DX009 (ip), vehicle: suspension in saline) was 106 % of control and the T/C (dose: 100.0 mg/kg/injection, schedule: Q01DX009 (ip), vehicle: saline with Tween-80) was 100 % of control. For the same compound, the T/C [11] was 104 % of control, the T/C (dose: 100.0 mg/kg/injection, schedule: Q01DX009 (ip), vehicle: suspension in saline) was 124 % of control and the T/C (dose: 200.0 mg/kg/injection, schedule: Q01DX009 (ip), vehicle: saline with Tween-80) was 91 % of control. The T/C (dose: 200.0 mg/kg/injection, schedule: Q01DX009 (ip), vehicle: suspension in saline) was 124 % of control.

In the case of `CNC(=O)OCc1c(COC(=O)NC)c(-c2ccccc2)n(C)c1-c1ccccc1`, the T/C (dose: 10.0 mg/kg/injection, schedule: Q01DX009 (ip), vehicle: distilled water + Tween-80) is reported as 164 % of control, the T/C (dose: 12.5 mg/kg/injection, schedule: Q01DX009 (ip), vehicle: distilled water + Tween-80) is reported as 181 % of control and the T/C (dose: 20.0 mg/kg/injection, schedule: Q01DX009 (ip), vehicle: distilled water + Tween-80) is reported as 205 % of control. For the same compound, the T/C (dose: 40.0 mg/kg/injection, schedule: Q01DX009 (ip), vehicle: distilled water + Tween-80) was 124 % of control.

With `C=C1C[C@@]23CC[C@@H]4[C@](C)(CC[C@H](O)[C@]4(C)COC(=O)CCC(=O)O)[C@H]2CC[C@@H]1C3` the T/C [1] was 101 % of control, the T/C [2] was 100 % of control and the T/C [3] was 99 % of control.

For `COC1C2CC3C4(CCC5C6(C)CCCC53C(C14)N(C)C6)CC21CCC23C4C=C5C6=C(CCC5(CC42)C3O1)C1(C)CC(C6)CN(C)C1` (centres undefined), the T/C [15] was 91 % of control, the T/C [14] was 94 % of control and the T/C [7] was 98 % of control.

For `C=C1C(=O)O[C@@H]2C3=C(C)C(=O)CC[C@]3(C)CC[C@@H]12`, the T/C [13] was 108 % of control.

For `CCOC(=O)C(CC)Oc1ccc(Cl)cc1` (centres undefined), the T/C [7] was 102 % of control and the T/C [8] was 89 % of control.

In the case of `CC(C)(C)c1ccc(N)c(N)c1`, the T/C (dose: 50.0 mg/kg/injection, schedule: Q01DX009 (ip), vehicle: DMSO) is reported as 98 % of control and the T/C (dose: 100.0 mg/kg/injection, schedule: Q01DX009 (ip), vehicle: DMSO) is reported as 99 % of control.

In the case of `Cc1cc(C2(c3cc(C)c(O)c(C)c3)c3ccccc3-c3ccccc32)cc(C)c1O`, the T/C [7] is reported as 99 % of control, the T/C [8] is reported as 99 % of control and the T/C [9] is reported as 96 % of control.

For `Cc1cc2cc(C3CCNCC3)oc2cc1C`, the T/C [15] was 100 % of control, the T/C [14] was 100 % of control and 109 % of control and the T/C [7] was 107 % of control and 109 % of control and 119 % of control.

With `C/C=C/C(=O)Sc1ccccc1` the T/C [15] was 108 % of control, the T/C [14] was 105 % of control and the T/C [7] was 101 % of control and 105 % of control.

For `COc1ccc2nc(Cl)c(CO)c(CO)c2c1`, the T/C [1] was 102 % of control, the T/C [2] was 95 % of control and the T/C [3] was 105 % of control.
